The target of one data set is T1, 11βHSD1 (Homo sapiens, UniProt P28845).
T1 construct: made in house; host or cells: S. cerevisiae yeast
Description: 11βHSD1 Scintillation Proximity Assay (SPA), 384-well format. It is filed as biochemical. The note with it: recombinant 11βHSD1 produced in S. cerevisiae; 3H-cortisone and NADPH; cortisol formed measured by SPA. As for the experimental part:
The compounds according to the invention have undergone pharmacological tests for determining their inhibitory effect on the enzyme 11βHSD1, which is involved in lipid metabolism and in glucose metabolism.
These tests consisted of measuring the inhibitory activity in vitro of compounds of the invention on the enzyme 11βHSD1 using a Scintillation Proximity Assay (SPA) in 384-well format. The recombinant 1βHSD1 protein was produced in S. cerevisiae yeast. The reaction was carried out by incubating the enzyme in the presence of ^3H-cortisone and NADPH, in the absence or in the presence of increasing concentration of inhibitor. SPA beads coupled to an antimouse antibody, preincubated with an anticortisol antibody, made it possible to measure the amount of cortisol formed during the reaction.
The inhibitory activity with respect to the enzyme 11βHSD1 is given by the concentration that inhibits 50% of the activity of 11βHSD1 (IC50).
(Scintillation proximity formats need no separation of bound from free tracer.)

Another data set concerns healthy volunteers. The conditions noted are these: after seven days of treatment, healthy volunteers (Rauz et al. 2001); cited from earlier work.

Each structure is given as a SMILES string. Where a name gives a salt, the structure may show the parent alone.

T1 sequence (P28845 whole entry): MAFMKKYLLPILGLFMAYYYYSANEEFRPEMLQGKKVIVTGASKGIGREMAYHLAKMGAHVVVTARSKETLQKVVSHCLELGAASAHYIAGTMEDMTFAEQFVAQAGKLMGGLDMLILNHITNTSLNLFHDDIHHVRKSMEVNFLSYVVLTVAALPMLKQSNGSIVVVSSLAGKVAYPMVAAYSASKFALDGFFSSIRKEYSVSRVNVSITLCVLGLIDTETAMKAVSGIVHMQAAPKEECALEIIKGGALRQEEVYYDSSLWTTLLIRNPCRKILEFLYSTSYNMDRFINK

As to `NC(=O)[C@]12CC3CC(C1)[C@H](NC(=O)N1CCN(c4ccc(N5CCC(N6CCS(=O)(=O)CC6)CC5)cn4)c4ccccc41)C(C3)C2` [Compound 5, Trans 4-[4-(1,1-dioxo-1lambda6-thiomorpholin-4-yl)-3,4,5,6-tetrahydro-2H-[1,3′]bipyridinyl-6′-yl]-3,4-dihydro-2H-quinoxaline-1-carboxylic acid (5-carbamoyl-adamantan-2-yl)-amide], the melting point was 160 to 200 °C. The IC50 at 11βHSD1 was determined as 4 nM.

The molecule `NC(=O)[C@]12CC3CC(C1)[C@H](NC(=O)N1CCN(c4ccc(N5CCC6(CC5)CC6C(=O)O)cn4)c4ccccc41)C(C3)C2` (stereo partly drawn) [Compound 12, trans-6-{6-[4-(5-Carbamoyl-adamantan-2-ylcarbamoyl)-3,4-dihydro-2H-quinoxalin-1-yl]-pyridin-3-yl}-6-aza-spiro[2.5]octane-1-carboxylic acid] yielded a melting point of 145 to 160 °C. In addition, the IC50 at 11βHSD1 came to 6 nM. `C[Si](C)(C)CN1CCN(c2ccc(N3CCN(C(=O)NC4C5CC6CC4CC(O)(C6)C5)c4ccccc43)nc2)CC1` (stereo not drawn) [Compound 1, Trans 4-[5-(4-trimethylsilanylmethyl-piperazin-1-yl)-pyridin-2-yl]-3,4-dihydro-2H-quinoxaline-1-carboxylic acid (5-hydroxy-adamantan-2-yl)-amide]: the IC50 on 11βHSD1 was determined as 7 nM. `C[Si](C)(C)CCS(=O)(=O)N1CCN(c2ccc(N3CCN(C(=O)NC4C5CC6CC4CC(O)(C6)C5)c4ccccc43)nc2)CC1` (stereo not drawn) [Compound 3, Trans 4-{5-[4-(2-trimethylsilanyl-ethanesulfonyl)-piperazin-1-yl]-pyridin-2-yl}-3,4-dihydro-2H-quinoxaline-1-carboxylic acid (5-hydroxy-adamantan-2-yl)-amide] gave a melting point of 107 to 120 °C. Besides, the IC50 at 11βHSD1 was determined as 10 nM. The matching figures for `CC(C)(C)ON=C1CCN(c2ccc(N3CCN(C(=O)N[C@H]4C5CC6CC4C[C@@](O)(C6)C5)c4ccccc43)nc2)CC1` [Compound 2, Trans 4-(4-tert-butoxyimino-3,4,5,6-tetrahydro-2H-[1,3′]bipyridinyl-6′-yl)-3,4-dihydro-2H-quinoxaline-1-carboxylic acid (5-hydroxy-adamantan-2-yl)-amide]: 110 to 113 °C and 23 nM. The matching figures for `C[Si]1(C)CCN(c2ccc(N3CCN(C(=O)NC4C5CC6CC4CC(C(N)=O)(C6)C5)c4ccccc43)nc2)CC1` (stereo not drawn) [Compound 14, Trans 4-[5-(4,4-dimethyl-[1,4]azasilinan-1-yl)-pyridin-2-yl]-3,4-dihydro-2H-quinoxaline-1-carboxylic acid (5-carbamoyl-adamantan-2-yl)-amide]: 213 to 216 °C and 12 nM. The matching figures for `C[Si]1(c2ccccc2)CCN(c2ccc(N3CCN(C(=O)N[C@H]4C5CC6CC4C[C@@](C(N)=O)(C6)C5)c4ccccc43)nc2)CC1` [Compound 13, Trans 4-[5-(4-methyl-4-phenyl-[1,4]azasilinan-1-yl)-pyridin-2-yl]-3,4-dihydro-2H-quinoxaline-1-carboxylic acid (5-carbamoyl-adamantan-2-yl)-amide]: 106 to 108 °C and 25 nM. Consider `CC1(C)[C@@H](OC(=O)CCC(=O)O)CC[C@]2(C)[C@H]3C(=O)C=C4[C@@H]5C[C@@](C)(C(=O)O)CC[C@]5(C)CC[C@@]4(C)[C@]3(C)CC[C@@H]12` [carbenoxolone], for which, in the data set on healthy volunteers, the “IOP is reduced by” value was 18%.

As to `NC(=O)C12CC3CC(C1)C(NC(=O)N1CCN(c4ccc(N5CCC(N6CCC[C@@H]6CO)CC5)cn4)c4ccccc41)C(C3)C2` (stereo in doubt) [Compound 6, Trans 4-[4-((R)-2-hydroxymethyl-pyrrolidin-1-yl)-3,4,5,6-tetrahydro-2H-[1,3′]bipyridinyl-6′-yl]-3,4-dihydro-2H-quinoxaline-1-carboxylic acid (5-carbamoyl-adamantan-2-yl)-amide], on 11βHSD1, the IC50 was 4 nM. For `NC(=O)C12CC3CC(C1)C(NC(=O)N1CCN(c4ccc(N5CCC(N6CCC[C@H]6CO)CC5)cn4)c4ccccc41)C(C3)C2` (stereo in doubt) [Compound 7, Trans 4-[4-((S)-2-hydroxymethyl-pyrrolidin-1-yl)-3,4,5,6-tetrahydro-2H-[1,3′]bipyridinyl-6′-yl]-3,4-dihydro-2H-quinoxaline-1-carboxylic acid (5-carbamoyl-adamantan-2-yl)-amide], at 11βHSD1, the IC50 was 3 nM. On to `NC(=O)[C@]12CC3CC(C1)[C@H](NC(=O)N1CCN(c4ccc(N5CCC(N6CC[C@@H](O)C6)CC5)cn4)c4ccccc41)C(C3)C2` (as salt: HCl) [Compound 9, Trans 4-[4-((R)-3-hydroxy-pyrrolidin-1-yl)-3,4,5,6,-tetrahydro-2H-[1,3′]bipyridinyl-6′-yl]-3,4-dihydro-2H-quinoxaline-1-carboxylic acid (5-carbamoyl-adamantan-2-yl)-amide], for which the melting point worked out at 191 °C. Take `NC(=O)C12CC3CC(C1)C(NC(=O)N1CCN(c4ccc(N5CCC(N6CCC(F)(F)C6)CC5)cn4)c4ccccc41)C(C3)C2` (stereo not drawn) [Compound 10, Trans 4-[4-(3,3-difluoro-pyrrolidin-1-yl)-3,4,5,6-tetrahydro-2H-[1,3′]bipyridinyl-6′-yl]-3,4-dihydro-2H-quinoxaline-1-carboxylic acid (5-carbamoyl-adamantan-2-yl)-amide]: the IC50 at 11βHSD1 stood at 2 nM. Still for that read-out and setting: to `NC(=O)[C@]12CC3CC(C1)[C@H](NC(=O)N1CCN(c4ccc(N5CCC(N6CC[C@@H](O)C6)CC5)cn4)c4ccccc41)C(C3)C2` [Compound 9, Trans 4-[4-((R)-3-hydroxy-pyrrolidin-1-yl)-3,4,5,6,-tetrahydro-2H-[1,3′]bipyridinyl-6′-yl]-3,4-dihydro-2H-quinoxaline-1-carboxylic acid (5-carbamoyl-adamantan-2-yl)-amide] belongs 2 nM.

Turning to `NC(=O)[C@]12CC3CC(C1)[C@H](NC(=O)N1CCN(c4ccc(N5CCN(CC6CC6(F)F)CC5)cn4)c4ccccc41)C(C3)C2` (stereo partly drawn) [Compound 4, Trans 4-{5-[4-(2,2-difluoro-cyclopropylmethyl)-piperazin-1-yl]-pyridin-2-yl}-3,4-dihydro-2H-quinoxaline-1-carboxylic acid (5-carbamoyl-adamantan-2-yl)-amide], the melting point worked out at 206 °C. In addition, the IC50 on 11βHSD1 was determined as 3 nM. As for `Cl.NC(=O)[C@]12CC3CC(C1)[C@H](NC(=O)N1CCN(c4ccc(N5CCC6(CC5)CC6(F)F)cn4)c4ccccc41)C(C3)C2` [Compound 11, Trans 4-[5-(1,1-difluoro-6-aza-spiro[2.5]oct-6-yl)-pyridin-2-yl]-3,4-dihydro-2H-quinoxaline-1-carboxylic acid (5-carbamoyl-adamantan-2-yl)-amide], the melting point is 134 to 170 °C. Further, the IC50 on 11βHSD1 turned out to be 3 nM. Regarding `NC(=O)C12CC3CC(C1)C(NC(=O)N1CCN(c4ccc(N5CCC(N6CCC(F)(F)C6)CC5)cn4)c4ccccc41)C(C3)C2` (stereo not drawn) (as salt: HCl) [Compound 10, Trans 4-[4-(3,3-difluoro-pyrrolidin-1-yl)-3,4,5,6-tetrahydro-2H-[1,3′]bipyridinyl-6′-yl]-3,4-dihydro-2H-quinoxaline-1-carboxylic acid (5-carbamoyl-adamantan-2-yl)-amide], the melting point was determined as 196 °C. In the case of `NC(=O)C12CC3CC(C1)C(NC(=O)N1CCN(c4ccc(N5CCC(N6CC[C@H](O)C6)CC5)cn4)c4ccccc41)C(C3)C2` (stereo in doubt) [Compound 8, Trans 4-[4-((S)-3-hydroxy-pyrrolidin-1-yl)-3,4,5,6-tetrahydro-2H-[1,3′]bipyridinyl-6′-yl]-3,4-dihydro-2H-quinoxaline-1-carboxylic acid (5-carbamoyl-adamantan-2-yl)-amide], the IC50 on 11βHSD1 stood at 6 nM.

Usually IC50 stands for the point on the concentration scale where inhibition reaches its midpoint. The term melting point denotes the temperature, or range, at which the solid turns liquid.

These data come from patent US8530473B2, “Tetrahydroquinoxaline urea derivatives as modulators of 11β-hydroxysteroid dehydrogenase type 1” (Sanofi, priority 2009, dated 2013).
